Read-outs that look alike come from different tables or passages of the source.
Test system: H1650 cells
Experiment: CellTiterGlo (CTG) cell viability, 3D, 120 h, H1650 (Example 8)
Assay type: cell-based, human
Details: Homo sapiens, NCI-H1650, H1650 3D
Experimental: H1650 cells were cultivated in RPMI supplemented with 10% heat inactivated fetal bovine serum, penicillin (100 IU/ml), streptomycin (100 μg/ml) and L-glutamine (2 mM). Cell lines were cultured at 37° C. in a humidified atmosphere containing 5% 002. Cells were seeded in 96 microwell round bottom plates (96 microwell Low attachment plates , Costar reference 7007) and exposed to the payloads or ADCs for 120 h (serially diluted; 9 concentrations each, duplicates). Effects of payloads or ADCs on cell viability were assessed after 5 days of incubation at 37° C./5% CO2 by quantification of cellular ATP levels using CellTiterGlo at 75 μL reagent/well. All the conditions were tested in duplicates. Luminescence was quantified on a multipurpose plate reader. IC50S were calculated using standard four-parametric curve fitting. […] Each experiment was performed at least twice, with results being reproducible.

[1] = experiment n1, read-out: H1650 3D CTG IC50 n1
[2] = mean of n1 and n2, read-out: H1650 3D CTG IC50 Mean of n1 and n2
[3] = experiment n2, read-out: H1650 3D CTG IC50 n2

Row | Structure (SMILES) | IC50 [1] [nM] | IC50 [2] [nM] | IC50 [3] [nM]
1 | Cc1c(Nc2nc3ccccc3s2)nnc2c1CCCN2c1ccc(-c2cnn(CC34CC5(C)CC(C)(C3)CC(OCCN(C)CCCO)(C5)C4)c2C)c(C(=O)O)n1 [P62, 6-[3-(1,3-benzothiazol-2-ylamino)-4-methyl-6,7-dihydro-5H-pyrido[2,3-c]pyridazin-8-yl]-3-[1-[[3-[2-[3-hydroxypropyl(methyl)amino]ethoxy]-5,7-dimethyl-1-adamantyl]methyl]-5-methyl-pyrazol-4-yl]pyridine-2-carboxylic acid] | 0.52 | 0.52 | –
2 | Cc1c(Nc2nc3ccccc3s2)nnc2c1CCCN2c1ccc(-c2cnn(C[C@]34C[C@]5(C)C[C@](C)(C3)C[C@@](OCCN3CCNCC3)(C5)C4)c2C)c(C(=O)O)n1 [P31, 6-[3-(1,3-benzothiazol-2-ylamino)-4-methyl-6,7-dihydro-5H-pyrido[2,3-c]pyridazin-8-yl]-3-[1-[[3,5-dimethyl-7-(2-piperazin-1-ylethoxy)-1-adamantyl]methyl]-5-methyl-pyrazol-4-yl]pyridine-2-carboxylic acid] | 0.57 | 0.99 | 1.4
3 | Cc1ccc2nc(Nc3nnc4c(c3C)CCCN4c3ccc(-c4cnn(CC56CC7(C)CC(C)(C5)CC(OCCN5CCCC5)(C7)C6)c4C)c(C(=O)O)n3)sc2c1 [P64, 3-[1-[[3,5-dimethyl-7-(2-pyrrolidin-1-ylethoxy)-1-adamantyl]methyl]-5-methyl-pyrazol-4-yl]-6-[4-methyl-3-[(6-methyl-1,3-benzothiazol-2-yl)amino]-6,7-dihydro-5H-pyrido[2,3-c]pyridazin-8-yl]pyridine-2-carboxylic acid] | 1.6 | 2.25 | 2.9
4 | Cc1c(Nc2nc3ccccc3s2)nnc2c1CCCN2c1nc(C(=O)O)c(CCCOc2ccc(C#CCN(C)C)cc2)s1 [P28, 2-[3-(1,3-benzothiazol-2-ylamino)-4-methyl-6,7-dihydro-5H-pyrido[2,3-c]pyridazin-8-yl]-5-[3-[4-[3-(dimethylamino)prop-1-ynyl]phenoxy]propyl]thiazole-4-carboxylic acid] | 0.39 | 0.29 | 0.18
5 | Cc1c(Nc2nc3ccccc3s2)nnc2c1CCCN2c1ccc(-c2cnn(CC34CC5(C)CC(C)(CC(CCCN(C)CCCO)(C5)C3)C4)c2C)c(C(=O)O)n1 [P68, 6-[3-(1,3-benzothiazol-2-ylamino)-4-methyl-6,7-dihydro-5H-pyrido[2,3-c]pyridazin-8-yl]-3-[1-[[3-[3-[3-hydroxypropyl(methyl)amino]propyl]-5,7-dimethyl-1-adamantyl]methyl]-5-methyl-pyrazol-4-yl]pyridine-2-carboxylic acid] | 0.84 | 0.76 | 0.68
6 | Cc1c(Nc2nc3ccccc3s2)nnc2c1CCCN2c1ccc(-c2cnn(CC34CC5(C)CC(C)(C3)CC(OCCN(C)CCCC(=O)O)(C5)C4)c2C)c(C(=O)O)n1 [P57, 6-[3-(1,3-benzothiazol-2-ylamino)-4-methyl-6,7-dihydro-5H-pyrido[2,3-c]pyridazin-8-yl]-3-[1-[[3-[2-[3-carboxypropyl(methyl)amino]ethoxy]-5,7-dimethyl-1-adamantyl]methyl]-5-methyl-pyrazol-4-yl]pyridine-2-carboxylic acid] | 6.75 | 10.5 | 14.3
7 | Cc1c(Nc2nc3ccccc3s2)nnc2c1CCCN2c1nc(C(=O)O)c(CCCOc2ccc(C#CCN3CCC(F)(F)CC3)cc2F)s1 [P15, 2-{3-[(1,3-Benzothiazol-2-yl)amino]-4-methyl-5H,6H,7H,8H-pyrido[2,3-c]pyridazin-8-yl}-5-(3-{4-[3-(4,4-difluoropiperidin-1-yl)prop-1-yn-1-yl]-2-fluorophenoxy}propyl)-1,3-thiazole-4-carboxylic acid] | 0.98 | 1.09 | 1.2
8 | Cc1c(Nc2nc3ccccc3s2)nnc2c1CCCN2c1ccc(-c2cnn(CC34CC5(C)CC(C)(C3)CC(OCCN3CCCC3)(C5)C4)c2C)c(CO)n1 [P73, [6-[3-(1,3-benzothiazol-2-ylamino)-4-methyl-6,7-dihydro-5H-pyrido[2,3-c]pyridazin-8-yl]-3-[1-[[3,5-dimethyl-7-(2-pyrrolidin-1-ylethoxy)-1-adamantyl]methyl]-5-methyl-pyrazol-4-yl]-2-pyridyl]methanol] | 8.6 | 9.01 | 9.41
9 | Cc1c(Nc2nc3ccccc3s2)nnc2c1CCCN2c1ccc(-c2cnn(C[C@]34C[C@@]5(C)C[C@](C)(C[C@](CCCN6CCCC6)(C5)C3)C4)c2C)c(C(=O)O)n1 [P41, 6-[3-(1,3-benzothiazol-2-ylamino)-4-methyl-6,7-dihydro-5H-pyrido[2,3-c]pyridazin-8-yl]-3-[1-[[3,5-dimethyl-7-(3-pyrrolidin-1-ylpropyl)-1-adamantyl]methyl]-5-methyl-pyrazol-4-yl]pyridine-2-carboxylic acid] | 3.3 | 2.7 | 2.1
10 | Cc1c(Nc2nc3ccccc3s2)nnc2c1CCCN2c1ccc(-c2cnn(CC34CC5(C)CC(C)(CC(CCCN(C)CCO)(C5)C3)C4)c2C)c(C(=O)O)n1 [P49, 6-[3-(1,3-benzothiazol-2-ylamino)-4-methyl-6,7-dihydro-5H-pyrido[2,3-c]pyridazin-8-yl]-3-[1-[[3-[3-[2-hydroxyethyl(methyl)amino]propyl]-5,7-dimethyl-1-adamantyl]methyl]-5-methyl-pyrazol-4-yl]pyridine-2-carboxylic acid] | 1.3 | 1.21 | 1.12
11 | Cc1c(Nc2nc3ccccc3s2)nnc2c1CCCN2c1ccc(-c2cnn(CC34CC5(C)CC(C)(CC(CCCN(C)C)(C5)C3)C4)c2C)c(C(=O)O)n1 [P66, 6-[3-(1,3-benzothiazol-2-ylamino)-4-methyl-6,7-dihydro-5H-pyrido[2,3-c]pyridazin-8-yl]-3-[1-[[3-[3-(dimethylamino)propyl]-5,7-dimethyl-1-adamantyl]methyl]-5-methyl-pyrazol-4-yl]pyridine-2-carboxylic acid] | 0.49 | 0.355 | 0.22
12 | Cc1c(Nc2nc3ccccc3s2)nnc2c1CCCN2c1ccc(-c2cnn(C[C@]34C[C@]5(C)C[C@](C)(C3)C[C@@](OCCNC(CO)CO)(C5)C4)c2C)c(C(=O)O)n1 [P24, 6-[3-(1,3-benzothiazol-2-ylamino)-4-methyl-6,7-dihydro-5H-pyrido[2,3-c]pyridazin-8-yl]-3-[1-[[3-[2-[[2-hydroxy-1-(hydroxymethyl)ethyl]amino]ethoxy]-5,7-dimethyl-1-adamantyl]methyl]-5-methyl-pyrazol-4-yl]pyridine-2-carboxylic acid] | 2.1 | 1.95 | 1.8
13 | Cc1c(Nc2nc3ccc(F)cc3s2)nnc2c1CCCN2c1ccc(-c2cnn(CC34CC5(C)CC(C)(C3)CC(OCCN3CCCC3)(C5)C4)c2C)c(C(=O)O)n1 [P65, 3-[1-[[3,5-dimethyl-7-(2-pyrrolidin-1-ylethoxy)-1-adamantyl]methyl]-5-methyl-pyrazol-4-yl]-6-[3-[(6-fluoro-1,3-benzothiazol-2-yl)amino]-4-methyl-6,7-dihydro-5H-pyrido[2,3-c]pyridazin-8-yl]pyridine-2-carboxylic acid] | 1 | 1.1 | 1.2
14 | COc1ccc2sc(Nc3nnc4c(c3C)CCCN4c3ccc(-c4cnn(C[C@]56C[C@]7(C)C[C@](C)(C5)C[C@@](OCCN5CCCC5)(C7)C6)c4C)c(C(=O)O)n3)nc2c1 [P43, 3-[1-[[3,5-dimethyl-7-(2-pyrrolidin-1-ylethoxy)-1-adamantyl]methyl]-5-methyl-pyrazol-4-yl]-6-[3-[(5-methoxy-1,3-benzothiazol-2-yl)amino]-4-methyl-6,7-dihydro-5H-pyrido[2,3-c]pyridazin-8-yl]pyridine-2-carboxylic acid] | 0.53 | 0.52 | 0.5
15 | Cc1c(Nc2nc3ccccc3s2)nnc2c1CCCN2c1nc(C(=O)O)c(CCCOc2ccc(C#CCN3CCCCC3)cc2F)s1 [P18, 2-[3-(1,3-Benzothiazol-2-ylamino)-4-methyl-6,7-dihydro-5H-pyrido[2,3-c]pyridazin-8-yl]-5-[3-[2-fluoro-4-[3-(1-piperidyl)prop-1-ynyl]phenoxy]propyl]thiazole-4-carboxylic acid] | 1.8 | 2.65 | 3.5
16 | Cc1c(Nc2nc3ccccc3s2)nnc2c1CCCN2c1ccc(-c2cnn(CC34CC5(C)CC(C)(CC(CCCN6CCCCCC6)(C5)C3)C4)c2C)c(C(=O)O)n1 [P52, 3-[1-[[3-[3-(azepan-1-yl)propyl]-5,7-dimethyl-1-adamantyl]methyl]-5-methyl-pyrazol-4-yl]-6-[3-(1,3-benzothiazol-2-ylamino)-4-methyl-6,7-dihydro-5H-pyrido[2,3-c]pyridazin-8-yl]pyridine-2-carboxylic acid] | 0.73 | 0.555 | 0.38
17 | CCN(CC)CC#Cc1ccc(OCCCc2sc(N3CCCc4c3nnc(Nc3nc5ccccc5s3)c4C)nc2C(=O)O)c(F)c1 [P14, 2-[3-(1,3-Benzothiazol-2-ylamino)-4-methyl-6,7-dihydro-5H-pyrido[2,3-c]pyridazin-8-yl]-5-[3-[4-[3-(diethylamino)prop-1-ynyl]-2-fluoro-phenoxy]propyl]thiazole-4-carboxylic acid] | 1.9 | 3.65 | 5.4
